The numbers were not newly measured in patent publication US7989007B2, “Weight loss composition” (Vincent James Enterprises, LLC, priority 2007, dated 2011), which cites them from elsewhere.

The conditions of the data set: subjects treated for hypertension; similar degree of hypertension control.

Molecules are shown by their SMILES.

As to `CC(C)NCC(O)COc1ccc(CC(N)=O)cc1` (stereo not shown) [atenolol], the “weight gain compared to patients treated with captopril” value is recorded as “twice the weight gain”.
